# From patent publication US11384381B2, “Reaction accelerating agent” (Kikkoman Corporation, priority 2016, dated 2022)
# What was measured:
# [1] = tested on: cholesterol oxidase (CHO-CE); test: Cholesterol detection reaction completed with excess cholesterol oxidase (Example 12); type: biochemical; conditions: 0.04% (w/v) compound, 11.6 U/ml CHO-CE (excess), 32 μM cholesterol, pH 7.0, 37° C.; for ΔA9 min: change in A694-A751 9 minutes after mixing; for ΔA10 min: change in A694-A751 10 minutes after mixing, defined as ΔA100%
# Protocol: In this Example the amount of change in absorbance is determined when the detection reaction for the substrate cholesterol was completed using an excess amount of cholesterol oxidase (CHO-CE), which is an oxidase.
# A reagent for cholesterol measurement having the following composition was prepared, and the measurement of cholesterol using cholesterol oxidase was carried out using Bio Majesty JCA-BM 1650 (manufactured by JEOL Ltd.).
# 32 μM cholesterol (manufactured by Wako Pure Chemical Industries, Ltd.)
# 5.0% (v/v) Triton X-100 (manufactured by Wako Pure Chemical Industries, Ltd.)
# 4.0% (w/v) sodium cholate (manufactured by Wako Pure Chemical Industries, Ltd.)
# 30 mM MOPS-NaOH buffer solution, pH 7.0
# (§1) 10 U/ml peroxidase PEO-301 (Toyobo Co., Ltd.)
# (§2) 0.023 mM 10-(carboxymethylaminocarbonyl)-3,7-bis(dimethylamino)phenothiazine sodium (DA-67, manufactured by Wako Pure Chemical Industries, Ltd.)
# 0.04% (w/v) of the compound of Comparative Example 2, any one compound of the present invention, or compound-free (Comparative Example 1) ion-exchange water as shown in Table 1
# 10 mM MOPS-NaOH buffer solution, pH 7.0
# 11.6 U/ml CHO-CE (manufactured by Kikkoman Biochemifa Company)
# 8 μl of the sample was added to 96 μl of the first reagent-E, and the mixture was incubated at 37° C. for 5 minutes. Then, 24 μl of the second reagent-I was added thereto, and the quantitative reaction of hydrogen peroxide resulting from the oxidation of cholesterol was allowed to progress at 37° C. for 5 minutes. The absorbance (A694 and A751) of the reaction solution for light at wavelengths of 694 nm and 751 nm was measured over time for 10 minutes after the mixing of the sample with the first reagent-E to determine the value of subtraction of A751 from A694, i.e., the value A694/751. Subsequently, ΔA was calculated by subtracting, from A694/751, the value of (104/128) times A694/751 4.8 minutes after the mixing of the sample with the first reagent-E. Incidentally, 4.8 minutes after the mixing of the sample with the first reagent-E represents the time immediately before the addition of the second reagent-I. ΔA 9 minutes and 10 minutes after the mixing of the diluted sample with the first reagent-E (ΔA9min and ΔA10min) are shown in Table 9.
# (§3) In other words, it can be recognized that the quantitative reaction of cholesterol, i.e., the quantitative reaction of hydrogen peroxide resulting from the oxidation of cholesterol, was completed in 10 minutes after the mixing of the diluted sample with the first reagent-E. Accordingly, in Examples 12 and 13, ΔA10min in each Comparative Example or the present invention was defined as ΔA when 100% of the quantitative reaction of cholesterol progressed under each condition (ΔA100%).
# CFP-DH4 (A1cOX) = test: HbA1c detection reaction completed with excess A1cOX (Example 4); type: biochemical; conditions: 0.04% (w/v) compound, 5.3 mg/ml CFP-DH4 (excess), blood cells 10.4% HbA1c, pH 6.5, 37° C.; for ΔA9 min: change in A694-A751 9 minutes after mixing sample with first reagent; for ΔA10 min: change in A694-A751 10 minutes after mixing sample with first reagent, defined as ΔA100%
# Protocol: In this Example, the amount of change in absorbance when an excess amount of A1cOX is used and HbA1c detection reaction was completed is determined.
# A reagent for HbA1c measurement having the following composition was prepared, and the measurement of HbA1c was carried out using Bio Majesty JCA-BMI650 (manufactured by JEOL Ltd.).
# Blood cells (10.4% HbA1c (NGSP value))
# 30 mM MOPS-NaOH buffer solution, pH 6.5
# 0.2% (w/v) n-dodecyl-β-D-maltoside (manufactured by Dojindo Laboratories)
# as §1, §2
# 0.04% (w/v) of the compound of Comparative Example 2 (Wako Pure Chemical Industries, Ltd.), any one compound of the present invention (all from Tokyo Chemical Industry Co., Ltd. except for Acid Yellow 34 from MP Biomedicals, LLC), or compound-free (Comparative Example 1) ion-exchange water as shown in Table 1 (Second Reagent-A) 10 mM MOPS-NaOH buffer solution, pH 6.5 5.3 mg/ml CFP-DH4 (A cOX)
# 8 μl of the sample diluted 51-fold with ion-exchange water was added to 96 μl of the first reagent-A, and the mixture was incubated at 37° C. for 5 minutes. Then, 24 μl of the second reagent-A was added thereto, and the quantitative reaction of hydrogen peroxide resulting from the oxidation of the β-chain amino terminus of HbA1c was allowed to progress at 37° C. for 5 minutes. The absorbance (A694 and A751) of the reaction solution for light at wavelengths of 694 nm and 751 nm was measured over time for 10 minutes after the mixing of the diluted sample with the first reagent-A to determine the value subtracting of A751 from A694, i.e., the value A694/751. Subsequently, ΔA was calculated by subtracting, from A694/751, the value of (104/128) times A694/751 4.8 minutes after mixing the diluted sample with the first reagent-A. Incidentally, 4.8 minutes after the mixing of the diluted sample with the first reagent-A represents the time immediately before the addition of the second reagent-A. ΔA 9 minutes and 10 minutes after the mixing of the diluted sample with the first reagent (ΔA9min and ΔA10min) are shown in Table 1.
# as §3, with “HbA1c,” for “cholesterol,”, “reagent-A.” for “reagent-E.”, “4” for “12”, “5,” for “13,”, “HbA1c” for “cholesterol”
Compound,ΔA9 min [1],ΔA10 min [1],ΔA9 min (CFP-DH4 (A1cOX)),ΔA10 min (CFP-DH4 (A1cOX))
Cc1nn(-c2cc(S(=O)(=O)[O-])ccc2Cl)c(O)c1N=Nc1ccccc1.[Na+] [Acid Yellow 34],0.033,0.033,0.011,0.011
O=S(=O)([O-])c1cccc(N=Nc2ccc(Nc3ccccc3)cc2)c1.[Na+] [Acid Yellow 36],0.033,0.033,0.011,0.011
O=C([O-])c1cc(N=Nc2cccc([N+](=O)[O-])c2)ccc1O.[Na+] [Alizarin Yellow GG],0.039,0.039,0.016,0.016
O=C(O)c1cc(N=Nc2ccc3cc(S(=O)(=O)O)ccc3c2)ccc1O.[Na] [Chrome Yellow],0.071,0.072,0.024,0.024
COc1cc(N=Nc2cccc(S(=O)(=O)[O-])c2)ccc1NC(=O)Nc1ccc(N=Nc2ccc(O)c(C(=O)[O-])c2)cc1.[Na+].[Na+] [Direct Yellow 44],,,0.017,0.017
COc1cc(N=Nc2ccc(N)cc2)c(C)cc1N [Disperse Diazo Black 3BF],0.028,0.032,,
O=C([O-])c1cc(N=Nc2ccc([N+](=O)[O-])cc2)ccc1O.[Na+] [Mordant Orange 1],0.041,0.041,0.016,0.016
Acid Red 151,0.036,0.036,0.014,0.014
Xylene Fast Yellow 2G,,,0.015,0.015
